Blank lines part the entries; values can stand above or below the molecule they belong to.
Key:
[1] = In vitro dicamba photo-release from photo-labile dicamba esters, acetonitrile/10% water solvent (Example 27); assay type: physicochemical; conditions: acetonitrile containing 10% water
Protocol: (§1) This Example describes in vitro testing of dicamba photo-release by homogeneous solutions of photo-labile dicamba esters. The esters were dissolved in tetrahydrofuran (THF). Ester concentration was 0.1 mM. 25 ml of the solution was transferred to 22 mm tubes fabricated from graded seal quartz tubing with a 19/22 tapered seal at the top, which was closed with a tapered glass plug and secured with a plastic ring clamp. The solution was entirely below the quartz-to-glass transition, ensuring that the entire volume was exposed to the full spectrum.
(§2) The sealed tubes were placed in a Growth Chamber where they were exposed to simulated sunlight for 14 hours per day at 35° C. Dicamba concentrations in the solution were measured during the course of the photolysis.
(§3) A sample of the initial solution was reserved in a glass vial away from the light source and analyzed at the conclusion of the study, providing a measurement of the amount of dicamba present without illumination of the photolysis solution (the “dark control”).
This Example is another photolysis of photo-labile dicamba esters, but using acetonitrile containing 10% water by weight as the solvent. The experimental protocol is otherwise the same as in Example 18.

[2] = In vitro photo-release and hydrolytic release of dicamba in an aqueous medium (Example 36); assay type: physicochemical; conditions: 0.01 mM (0.005 mM for diesters)
Protocol: This Example describes the determination of photo-lability and hydrolytic lability of dicamba esters in an aqueous medium. 1 mM solutions of the esters were prepared in acetonitrile (or […] solutions of dicamba diesters). The solutions were then diluted with deionized water to a concentration of 0.01 mM (or 0.005 mM for diesters). The solutions were then transferred to quartz tubes and amber bottles and held in a growth chamber by the procedure of Example 26. A 14-hour day was generally used at a constant temperature of 35° C. Hydrolytic activity was assessed by measuring the increase in dicamba concentration after day zero in the amber (dark) bottles. […] Photolysis manifested itself as increased conversion in the quartz tubes compared to the dark control.
This Example provides the results of an aqueous lability test following the protocol of Example 35 for several dicamba esters which convert to dicamba primarily by hydrolysis. As shown by the results in the table below, conversion of the dark controls generally equaled or exceeded conversion in the photolysis solutions.

velvetleaf [3] = experiment: Greenhouse post-emergent control of velvetleaf by emulsifiable concentrates (Example 37); assay type: in vivo; conditions: Abutilon theophrasti, post-emergence, 504 h, greenhouse, Example 37
Protocol: (§4) The efficacy of some photo-labile ester formulations from Example 28 for post-emergent control of velvetleaf was tested in the greenhouse. All formulations were tested at rates of 140, 280, 420, and 560 g dicamba equivalent per hectare rates and compared to the diglycolamine salt of dicamba (CLARITY®) at the same rates and untreated control plants. The velvetleaf plants were 10-15 cm in height at the time of spraying. Percent control was evaluated three weeks after treatment.
The methodology of Example 29 was used to evaluate the efficacy of several esters of dicamba which convert to dicamba by hydrolysis for post-emergent control of velvetleaf as emulsifiable concentrate formulations.

Euphorbia species = experiment: Field testing for post-emergent activity in the Southern Hemisphere (Example 39); assay type: in vivo; conditions: 9 as suspension concentrate, other esters as emulsifiable concentrates; for % control, 0.25 lb/ac (0.28 kg/hectare): 0.25 lb dicamba a.e. per acre; for % control, 0.50 lb/ac (0.56 kg/hectare): 0.50 lb dicamba a.e. per acre
Protocol: The primary weeds were Euphorbia species. Ester 9 was tested as a suspension concentrate using the formulation of Example 33 The other esters were tested as emulsifiable concentrates having the formulations shown in the table below. Akzo Nobel SPONTO EC 334 and SPONTO EC 336 along with SURFONIC CO-54 and […] (Huntsman) were used as emulsifiers and Aromatic 200 (A 200; Exxon) was used as the solvent. […] The diglycolamine salt of dicamba (CLARITYTM) was used as a comparator.

[4] = Solubility of the esters (statements of the description); assay type: physicochemical; conditions: qualitative
[5] = Photolysis / cleavage of the esters to dicamba (statements of the description); assay type: physicochemical; conditions: qualitative
From the text: The efficacy of the photolabile esters can be assayed in vitro, or in greenhouse or field experiments. A useful in vitro assay for post-emergent activity involves photolysis of a dilute solution of the esters using simulated sunlight. This is conveniently achieved by photolysis of a solution of the ester in an organic solvent which is miscible with water and to which some water has been added. As described in the Examples, photolysis in acetonitrile or tetrahydrofuran containing 10% water by weight is effective. Low concentrations of the ester should be used so that the entire volume is exposed to sunlight. Since the maximum extinction coefficient of the typical esters above 220 nm is in the range of 1000-10,000 M^−1 cm^−1, a concentration of 0.1 mM is effective. Photolysis in a quartz tube exposed to simulated or actual sunlight is a typical protocol.

broadleaf weeds = experiment: Control of broadleaf weeds by ester concentrates (statements of the description); assay type: in vivo; conditions: emulsifiable and suspension concentrates; Sesbania macrocarpa, morning glory, velvetleaf, Palmer amaranth, fat hen, sicklepod
[6] = In vitro dicamba photo-release from photo-labile dicamba esters, tetrahydrofuran solvent (Example 26); assay type: physicochemical
Protocol: as §1, §2, §3

velvetleaf [7] = experiment: Greenhouse post-emergent control of velvetleaf by emulsifiable concentrates (Example 29); assay type: in vivo; conditions: three weeks after treatment
Protocol: as §4

hemp sesbania = experiment: Field testing of emulsifiable concentrates, post-emergent control (Example 38); assay type: in vivo
From the text: (§5) Four dicamba esters, 1a, 2, 9, and 13a, were formulated as emulsifiable concentrates for field testing. All formulations contained 5% each of a alkylbenzene sulfonate calcium salt (Huntsman NANSA EVM 62/H or Akzo Nobel WITCONATE P-1220 EH) and castor oil ethoxylate (Huntsman SURFONIC CO-54) as the emulsifiers and Aromatic 200 (Exxon) or monochlorobenzene (MCB) as the solvent.
(§6) The esters were compared to the diglycolamine salt of dicamba (CLARITY™) for post-emergent control of three broadleaf weeds: velvetleaf, morning glory, and hemp sesbania. Rates of 280 and 420 g dicamba acid equivalent per hectare were used. […] Evaluations were conducted at 11 or 21 days after treatment. Locations and timing were identical for all formulations tested.

morning glory = experiment: as above; assay type: in vivo
From the text: as §5, §6

velvetleaf [8] = experiment: as above; assay type: in vivo
From the text: as §5, §6

[9] = 280 and 420 g dicamba acid equivalent per hectare
[10] = 280 g dicamba acid equivalent per hectare, 11 or 21 days after treatment
[11] = 420 g dicamba acid equivalent per hectare, 11 or 21 days after treatment

Dark Control % dicamba ([1]; no illumination): 0%
Conversion to dicamba, 1 day ([1]; simulated sunlight, 1 day): 6%
Conversion to dicamba, 2 days ([1]; simulated sunlight, 2 days): 9%
Conversion to dicamba, 3 days ([1]; simulated sunlight, 3 days): 10%
Conversion to dicamba, 5 days ([1]; simulated sunlight, 5 days): 12%
Conversion to dicamba, 7 days ([1]; simulated sunlight, 7 days): 12%
Conversion to dicamba, 11 days ([1]; simulated sunlight, 11 days): 19%
Conversion to dicamba, 13 days ([1]; simulated sunlight, 13 days): 21%
Conversion to dicamba, 15 days ([1]; simulated sunlight, 15 days): 25%
Conversion to dicamba, 19 days ([1]; simulated sunlight, 19 days): 26%
Conversion to Dicamba, Dark, Day 0 ([2]; amber (dark) bottle, Day 0): 2%
Conversion to Dicamba, Dark, Day 1 ([2]; amber (dark) bottle, Day 1): 68%
Conversion to Dicamba, Dark, Day 2 ([2]; amber (dark) bottle, Day 2): 81%
Conversion to Dicamba, Dark, Day 3 ([2]; amber (dark) bottle, Day 3): 84%
Conversion to Dicamba, Dark, Day 4 ([2]; amber (dark) bottle, Day 4): 86%
Conversion to Dicamba, Dark, Day 7 ([2]; amber (dark) bottle, Day 7): 92%
Conversion to Dicamba, Dark, Day 14 ([2]; amber (dark) bottle, Day 14): 90%
Conversion to Dicamba, Dark, Day 21 ([2]; amber (dark) bottle, Day 21): 91%
Conversion to Dicamba, Dark, Day 28 ([2]; amber (dark) bottle, Day 28): 97%
Conversion to Dicamba, Light, Day 0 ([2]; quartz tube, Day 0): 2%
Conversion to Dicamba, Light, Day 1 ([2]; quartz tube, Day 1): 61%
Conversion to Dicamba, Light, Day 2 ([2]; quartz tube, Day 2): 63%
Conversion to Dicamba, Light, Day 3 ([2]; quartz tube, Day 3): 64%
Conversion to Dicamba, Light, Day 4 ([2]; quartz tube, Day 4): 68%
Conversion to Dicamba, Light, Day 7 ([2]; quartz tube, Day 7): 67%
Conversion to Dicamba, Light, Day 14 ([2]; quartz tube, Day 14): 71%
Conversion to Dicamba, Light, Day 21 ([2]; quartz tube, Day 21): 71%
Conversion to Dicamba, Light, Day 28 ([2]; quartz tube, Day 28): 75%
solubility, in words [4]: readily soluble in organic solvents
Compound: COc1c(Cl)ccc(Cl)c1C(=O)Oc1ccccn1 [Ester 14, 2-Hydroxypyridine Ester of Dicamba]
pest or weed control at 140 g/ha (velvetleaf [3]; 140 g/ha, read-out: % Control of velvetleaf, 140 g/ha): 40%
pest or weed control at 280 g/ha (velvetleaf [3]; 280 g/ha, read-out: % Control of velvetleaf, 280 g/ha): 58.3%
pest or weed control at 420 g/ha (velvetleaf [3]; 420 g/ha, read-out: % Control of velvetleaf, 420 g/ha): 80.8%
pest or weed control at 560 g/ha (velvetleaf [3]; 560 g/ha, read-out: % Control of velvetleaf, 560 g/ha): 85%
% control, 0.25 lb/ac (0.28 kg/hectare) (Euphorbia species): 47%
% control, 0.50 lb/ac (0.56 kg/hectare) (Euphorbia species): 56%
cleavage to form dicamba, in words [5]: undergoes efficient cleavage to form dicamba
control of a number of broadleaf weeds in field testing, in words (broadleaf weeds): proven effective

Compound: COc1ccc(C(=O)COC(=O)c2c(Cl)ccc(Cl)c2OC)cc1 [Ester 9, 4-methoxyphenacyl methyl ester of dicamba]
Dark Control % dicamba ([6]; THF, 0.1 mM ester, initial solution kept away from the light source, analyzed at conclusion of study): 1%
Conversion to dicamba, 1 day ([6]; THF, 0.1 mM ester, simulated sunlight 14 hours per day, 35° C., 1 day): 76%
Conversion to dicamba, 2 days ([6]; THF, 0.1 mM ester, simulated sunlight 14 hours per day, 35° C., 2 days): 91%
Conversion to dicamba, 3 days ([6]; THF, 0.1 mM ester, simulated sunlight 14 hours per day, 35° C., 3 days): 90%
Conversion to dicamba, 5 days ([6]; THF, 0.1 mM ester, simulated sunlight 14 hours per day, 35° C., 5 days): 89%
Conversion to dicamba, 7 days ([6]; THF, 0.1 mM ester, simulated sunlight 14 hours per day, 35° C., 7 days): 89%
photo-efficiency of dicamba generation ([6]; in vitro studies): ~100%
% Control of velvetleaf, 140 g/ha (velvetleaf [7]; 140 g dicamba equivalent per hectare): 23%
% Control of velvetleaf, 280 g/ha (velvetleaf [7]; 280 g dicamba equivalent per hectare): 19%
% Control of velvetleaf, 420 g/ha (velvetleaf [7]; 420 g dicamba equivalent per hectare): 28%
% Control of velvetleaf, 560 g/ha (velvetleaf [7]; 560 g dicamba equivalent per hectare): 29%
post-emergent control of hemp sesbania compared with the dicamba salt, in words (hemp sesbania; [9]): equivalent to the dicamba salt
% control, 280 g/ha, Hemp sesbania (hemp sesbania; [10]): 86%
% control, 420 g/ha, Hemp sesbania (hemp sesbania; [11]): 93%
post-emergent control of morning glory compared with the dicamba salt, in words (morning glory; [9]): equivalent to the dicamba salt
% control, 280 g/ha, Morning glory (morning glory; [10]): 98%
% control, 420 g/ha, Morning glory (morning glory; [11]): 100%
post-emergent control of velvetleaf compared with the dicamba salt, in words (velvetleaf [8]; [9]): nearly equivalent to the dicamba salt
% control, 280 g/ha, Velvetleaf (velvetleaf [8]; [10]): 79%
% control, 420 g/ha, Velvetleaf (velvetleaf [8]; [11]): 80%
% control, 0.25 lb/ac (0.28 kg/hectare) (Euphorbia species): 54%
% control, 0.50 lb/ac (0.56 kg/hectare) (Euphorbia species): 62%
solubility, in words [4]: relatively insoluble
photolysis / photo-release of dicamba, in words [5]: efficient photo-release of 9 in a suspension concentrate formulation occurs over several weeks
control of a number of broadleaf weeds in field testing, in words (broadleaf weeds): proven effective

Source: patent US20170029355A1, “LABILE ESTERS OF AGROCHEMICALS FOR CONTROLLED RELEASE AND REDUCTION OF OFF-SITE MOVEMENT” (Monsanto Technology LLC, priority 2011, published 2017)
